Assay results reported in patent publication US20250074920A1, “MACROCYCLIC COMPOUNDS AND USE AS KINASE INHIBITORS” (BLOSSOMHILL THERAPEUTICS, INC., priority 2022, published 2025).

How the values were obtained:
Experiment in all cases: KINOMEscan kinase binding assay
EPHB3 = conditions: at 1 μM
Outline: (§1)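 Immobilized-ligand competition, qPCR-quantified. Kinase sources: T7 phage lysates from BL21-type E. coli, or HEK-293 expression plus DNA tag. Results expressed as % Ctrl (lower = stronger binding) and as Kd from capture versus concentration curves.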

TRKC = conditions: at 1 μM
Outline: as §1

KIT(A829P) = conditions: at 1 μM
Outline: as §1

FGFR4 = conditions: at 1 μM
Outline: as §1

[1] = system: JAK2(JH1domain-catalytic)
Outline: (§2)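 Dissociation constants came from the amount of kinase captured on the solid support across a test compound concentration series. Captured kinase, T7 phage-fused or HEK-293-made and DNA-tagged, was read by qPCR after a 1 h room-temperature binding step.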

MET(Y1235D) = conditions: at 1 μM
Outline: as §1

TRKB = conditions: at 1 μM
Outline: as §1

MERTK = conditions: at 1 μM
Outline: as §1

EGFR(G719S) = conditions: at 1 μM
Outline: as §1

EGFR(T790M) = conditions: at 1 μM
Outline: as §1

FLT1 = conditions: at 1 μM
Outline: as §1

[2] = system: ABL1(F3171)-phosphorylated; conditions: at 1 μM
Outline: as §1

EGFR(E746-A750del) = conditions: at 1 μM
Outline: as §1

FLT3 = conditions: at 1 μM
Outline: as §1

CTK = conditions: at 1 μM
Outline: as §1

[3] = system: ABL1(H396P)-phosphorylated; conditions: at 1 μM
Outline: as §1

ABL1-phosphorylated = conditions: at 1 μM
Outline: as §1

ZAP70 = conditions: at 1 μM
Outline: as §1

TYRO3 = conditions: at 1 μM
Outline: as §1

KIT(D816V) = conditions: at 1 μM
Outline: as §1

SYK = conditions: at 1 μM
Outline: as §1

FLT3(D835H) = conditions: at 1 μM
Outline: as §1

FLT3(D835Y) = conditions: at 1 μM
Outline: as §1

SRC = conditions: at 1 μM
Outline: as §1

[4] = system: JAK1(JH1domain-catalytic)
Outline: as §2

FLT3(R834Q) = conditions: at 1 μM
Outline: as §1

[5] = system: ABL1(H396P)-nonphosphorylated; conditions: at 1 μM
Outline: as §1

VEGFR2 = conditions: at 1 μM
Outline: as §1

IGF1R = conditions: at 1 μM
Outline: as §1

TNK2 = conditions: at 1 μM
Outline: as §1

BTK = conditions: at 1 μM
Outline: as §1

KIT(V559D, V654A) = conditions: at 1 μM
Outline: as §1

[6] = system: ABL1(M351T)-phosphorylated; conditions: at 1 μM
Outline: as §1

YES = conditions: at 1 μM
Outline: as §1

RET = conditions: at 1 μM
Outline: as §1

AXL = conditions: at 1 μM
Outline: as §1

[7] = system: ABL1(E255K)-phosphorylated; conditions: at 1 μM
Outline: as §1

EGFR(S752-1759del) = conditions: at 1 μM
Outline: (§3)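 Competition binding format: a test compound at a single concentration displaces phage-tagged or DNA-tagged kinase from an immobilized affinity ligand. After washing, kinase is released with 0.5 μM free ligand (30 min, room temperature) and measured by qPCR. Data are given as % Ctrl.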

EPHA6 = conditions: at 1 μM
Outline: as §3

CSK = conditions: at 1 μM
Outline: as §1

Compound: Cc1cc2c([nH]1)/C=C1\C(=O)Nc3c(Cl)cc(cc31)-c1cn(C)nc1COC[C@@H](C)N(C)C2=O [Cpd. 5, [3a(4)Z,10R]-20-chloro-6,9,10,15-tetramethyl-10,11,13,15-tetrahydro-2H-1,17-(ethanediylidene)pyrazolo[4,3-m]dipyrrolo[3,2-f:3′,4′-i][1,4]oxazacyclopentadecine-3,8(5H,9H)-dione]
- % Ctrl (EPHB3): 89%
- % Ctrl (TRKC): 98%
- % Ctrl (KIT(A829P)): 84%
- % Ctrl (FGFR4): 88%
- % Ctrl ([1]; JAK2(JH1domain-catalytic), at 1 μM): 89%
- Kd ([1]; read-out: JAK2(JH1 domain-catalytic) Kd): > 10 µM
- % Ctrl (MET(Y1235D)): 100%
- % Ctrl (TRKB): 100%
- % Ctrl (MERTK): 86%
- % Ctrl (EGFR(G719S)): 98%
- % Ctrl (EGFR(T790M)): 80%
- % Ctrl (FLT1): 93%
- % Ctrl [2]: 97%
- % Ctrl (EGFR(E746-A750del)): 95%
- % Ctrl (FLT3): 94%
- % Ctrl (CTK): 84%
- % Ctrl [3]: 80%
- % Ctrl (ABL1-phosphorylated): 79%
- % Ctrl (ZAP70): 63%
- % Ctrl (TYRO3): 84%
- % Ctrl (KIT(D816V)): 100%
- % Ctrl (SYK): 90%
- % Ctrl (FLT3(D835H)): 79%
- % Ctrl (FLT3(D835Y)): 100%
- % Ctrl (SRC): 100%
- % Ctrl ([4]; JAK1(JH1domain-catalytic), at 1 μM): 100%
- Kd ([4]; read-out: JAK1(JH1 domain-catalytic) Kd): > 10 µM
- % Ctrl (FLT3(R834Q)): 98%
- % Ctrl [5]: 98%
- % Ctrl (VEGFR2): 92%
- % Ctrl (IGF1R): 98%
- % Ctrl (TNK2): 87%
- % Ctrl (BTK): 68%
- % Ctrl (KIT(V559D, V654A)): 91%
- % Ctrl [6]: 94%
- % Ctrl (YES): 86%
- % Ctrl (RET): 95%
- % Ctrl (AXL): 86%
- % Ctrl [7]: 79%
- % Ctrl (EGFR(S752-1759del)): 100%
- % Ctrl (EPHA6): 91%
- % Ctrl (CSK): 96%
